Here are results for two compounds from patent US4774248A, “Methods of treating depression and depressive states using 5-phenyl-1,4,5,6-tetrahydropyrimidine derivatives” (priority 1985, dated 1988).

Data set [1] has as its system hypothermia and ptosis induced by reserpine. Nature of the data set: Interaction with reserpine. The conditions noted are these: mice, i.p.; for action on hypothermia induced by reserpine / action on ptosis induced by reserpine: reserpine 2.5 mg/kg, hydrochloride. It counts as in vivo. The essentials: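 Reserpine 2.5 mg/kg i.p. given to male mice in groups of 12; test compound dissolved in distilled water and given i.p. (20 ml/kg) four hours later.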

Data set [2] concerns depressions and depressive states. The data set can be described thus: Clinical trials in depression and depressive states. The conditions noted are these: daily oral administration to adults. It counts as in vivo, human. As to the method: The clinical trials which have been undertaken have made it possible to determine that the daily dose to be administered orally to adults, in the treatment of depressions and depressive states, is generally between 3 and 120 mg for the products of the formulae Ia and Ib according to the invention.

For data set [3], the system named is male mice. The data set can be described thus: Acute toxicity, intraperitoneal (LD0, LD30, LD60, LD100). Type of data set: in vivo. Here is the method: (§1) The results of toxicological and neuropsychopharmacological tests which were carried out with the products according to the invention have been summarized below. In these tests, solutions of the said products in distilled water were administered intraperitoneally in a volume of 20 ml/kg to male mice and in a volume of 5 ml/kg to male rats.

Data set [4] relates to hypothermia induced by apomorphine. Nature of the data set: Interaction with apomorphine by gastric administration. It counts as in vivo. The conditions noted are these: Mus musculus, male mice, apomorphine 16 mg/kg s.c., read-out: dose as from which the hypothermia induced by apomorphine is opposed. As to the method: Each test product is administered gastrically to male mice, in a volume of 20 ml/kg, 0.50 h before the subcutaneous injection of 16 mg/kg of apomorphine.

For data set [5], the system named is mice. Nature of the data set: Behavioral despair (forced immersion). It counts as in vivo. The conditions noted are these: mice which have been forcibly immersed, i.p.; hydrochloride.
In data set [6] the test system is stereotypies induced by amphetamine. The data set can be described thus: Interaction with amphetamine (mice as printed). Type of data set: in vivo. As to conditions: in mice (so in the source), i.p. As to the method: (§2) Amphetamine (2 mg/kg) is injected intraperitoneally into groups of 6 rats 30 minutes after the administration of CRL 41 378.
Using the procedures given above, the following results were obtained with a solution of CRL 41 382 in water at pH 6.

Data set [7] relates to pregnant rabbits. Nature of the data set: Teratogenic effects on pregnant rabbits. Type of data set: in vivo.
The test system of data set [8] is mice. Nature of the data set: Motility reduced by hypoxic aggression (acute hypobaric anoxia). As to conditions: i.p. It counts as in vivo. As to the method: In these tests, solutions of the said products in distilled water were administered intraperitoneally in a volume of 20 ml/kg to male mice and in a volume of 5 ml/kg to male rats.
A short description of data set [9]: pH of aqueous solution. It counts as physicochemical. As to the method: The tests were carried out in solution in water at pH 4.0-5.5. The pH of the aqueous solution of CRL 41 378 varies according to the concentration: it is 4.0 at a concentration of 50 g/l, 4.5 at 12.5 g/l, 5.0 at 0.8 g/l and 5.5 at CRL 41 378 concentrations less than or equal to 0.2 g/l.
For data set [10], the system named is stereotypies induced by amphetamine. The data set can be described thus: Interaction with amphetamine (rats). Type of data set: in vivo. The conditions noted are these: i.p.; amphetamine 2 mg/kg. As to the method:
as §1, §2

Entries after “also recorded” stand apart in the source; their conditions may differ. Bounds are passed on as bounds.

For `Cl.OC1(c2ccccc2)CN=CNC1` (stereo not shown) [CRL 41 382, 5-hydroxy-5-phenyl-1,4,5,6-tetrahydropyrimidine hydrochloride], in data set [1], the “action on hypothermia induced by reserpine” value was “At doses of 4 mg/kg and 16 mg/kg, CRL 41 382 opposes the hypothermia induced by reserpine; also recorded: At the highest dose used (64 mg/kg), CRL 41 382 has no effect on the hypothermia induced by reserpine; also recorded: antagonism of the hypothermia induced by reserpine no longer appears at the high dose of CRL 41 382 used”; the “action on ptosis induced by reserpine” value is listed as “practically no modification of the ptosis induced by reserpine; also recorded: absence of antagonism of the ptosis induced by reserpine”. Further, in [2], the “results in human therapy (depression)” value is “excellent results”. Further, in [3] (intraperitoneal), the “LD0 (maximum non-lethal dose)” value is “greater than 256 mg/kg” and the LD60 is recorded as approximately 500 mg/kg. Besides, the minimal effective dose in [4] was not below 2 mg/kg. Moreover, the period of immobility result in data set [5] is recorded as “does not modify the period of immobility; also recorded: absence of antagonism of the immobility due to "despair"”. Moreover, the “action on stereotypies induced by amphetamine” value in data set [6] was “practically no modification of the stereotypies induced by amphetamine”. The teratogenic effects entry in data set [7] is “devoid of harmful teratogenic effects on pregnant rabbits”. In addition, in data set [8] (hydrochloride), the “motor recovery after acute hypobaric hypoxia” value was “At doses of 16 mg/kg and 64 mg/kg, CRL 41 382 causes an increase in the motor recovery; also recorded: moderate increase in the motor recovery of mice after acute hypobaric hypoxia”.

`CC(=O)N1C=NCC(c2ccccc2)C1.Cl` (stereo not shown) [CRL 41 378, 1-acetyl-5-phenyl-1,4,5,6-tetrahydropyrimidine hydrochloride]: the “pH of the aqueous solution” value in data set [9] (0.8 g/l) stood at 5.0; in data set [9] (12.5 g/l), 4.5; in [9] (50 g/l), 4.0; in [9] (less than or equal to 0.2 g/l), 5.5. Also, the minimal effective dose in [1] (Mus musculus, ip, 24 h after administration, read-out: dose as from which the ptosis induced by reserpine is moderately decreased) was not below 0.5 mg/kg; in data set [4], not below 0.5 mg/kg. For the same compound, the “action on hypothermia induced by reserpine” value in [1] is “at doses of 0.5 mg/kg to 4 mg/kg, CRL 41 378 antagonizes the hypothermia induced by reserpine; also recorded: this effect tends to decrease to nothing at a dose of 16 mg/kg; also recorded: the highest dose used (64 mg/kg) being inactive towards the hypothermia induced by reserpine; also recorded: antagonism of the hypothermia induced by apomorphine, reserpine and oxotremorine in mice”. Also, in [1], the “action on ptosis induced by reserpine” value is “moderate decrease in the ptosis induced by reserpine 24 h after administration; also recorded: absence of distinct antagonism of the ptosis induced by reserpine”. Besides, the “results in human therapy (depression)” value in [2] is reported as “excellent results”. The “toxic signs in the animals treated” value in [3] (256 mg/kg i.p.) is “all the animals treated exhibit dyspnea, substantial salivation and convulsions 10 minutes after administration”. Moreover, the “LD0 (maximum non-lethal dose)” value in [3] (intraperitoneal) is given as “greater than 256 mg/kg”. In addition, in [10], the “action on stereotypies induced by amphetamine” value was “at the highest dose used (32 mg/kg), CRL 41 378 potentiates the stereotypies induced by amphetamine”. Further, the teratogenic effects entry in data set [7] is given as “devoid of harmful teratogenic effects on pregnant rabbits”. For the same compound, in data set [8], the “lethal effects of hypobaric anoxia” value is “At a dose of 64 mg/kg, CRL 41 378 aggravates the effects of hypobaric anoxia and causes the death of all the animals treated”. Besides, in [8], the “motor recovery after acute hypobaric hypoxia” value is “at doses of 1 mg/kg, 4 mg/kg and 16 mg/kg, CRL 41 378 does not cause a modification of the motor recovery”.
